Laboratory results: US20240262822A1, “WDR5 INHIBITORS AND MODULATORS” (Vanderbilt University, priority 2021, published 2024)

Tests used:
WDR5 = target: T1, WDR5 (Homo sapiens, UniProt P61964); experiment: Time Resolved-Fluorescence Energy Transfer (TR-FRET) competition assay, displacement of 10mer-Thr-FAM probe from His-tagged WDR5; format: binding; settings: WDR5-His tag 2 nM, 10mer-Thr-FAM 150 nM, 60 minutes at room temperature; read-out: Ki for Exemplified Compounds for Inhibition of WDR5 by TR-FRET assay
T1 construct: WDR5-His Tag (A23, residues 24-334) is expressed and purified in our lab; made in house
Procedure, shortened: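 Competitive TR-FRET using 2 nM His-tagged WDR5 (residues 24-334), 1 nM Tb-anti-His antibody and 150 nM 10mer-Thr-FAM probe; compounds in a 10-point, 5-fold series from 5 μM, ≤1% DMSO. Incubated 60 min at room temperature in PBS with 300 mM NaCl, 0.5 mM TCEP, 0.1% CHAPS, pH 7.2; 520/495 nm emission gave IC50, converted to Ki by the Wang equation.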

[1] = test system: MV4:11 human cancer cell lines; experiment: Cellular viability / anti-proliferative activity, CellTiter-Glo, 5 day protocol; format: cell-based; settings: Homo sapiens, MV4-11, 120 h, MV4:11 cells, 5 day incubation, read-out: GI50 for representative compounds on cellular proliferation of MV4:11 human cancer cell lines
Procedure, shortened: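 MV-4-11 cells in IMDM/10% FBS, 200 cells per well, exposed to 22-point 2-fold dilutions from 30 μM top (0.3% DMSO) for 5 days. Viability by CellTiter-Glo luminescence; GI50 from sigmoidal dose-response fit, mean of at least two replicates.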

Row | Compound | Ki (WDR5) | GI50 [1]
1 | COc1cc2nc(N3CCOCC3)nc(N3CCc4c(cc(Cn5ccnc5)cc4-c4cn(C)nc4C(F)(F)F)C3=O)c2cc1OC [Example 56, 7-((1H-Imidazol-1-yl)methyl)-2-(6,7-dimethoxy-2-morpholinoquinazolin-4-yl)-5-(1-methyl-3-(trifluoromethyl)-1H-pyrazol-4-yl)-3,4-dihydroisoquinolin-1(2H)-one] | < 0.02 nM | < 20 nM
2 | CNc1nc(N2CCc3c(cc(Cn4ccnc4)cc3-c3cn(C)nc3C(F)(F)F)C2=O)c2cc(OC)c(OC)cc2n1 [Example 57, 7-((1H-Imidazol-1-yl)methyl)-2-(6,7-dimethoxy-2-(methylamino)quinazolin-4-yl)-5-(1-methyl-3-(trifluoromethyl)-1H-pyrazol-4-yl)-3,4-dihydroisoquinolin-1(2H)-one] | 0.023 nM | 24 nM
3 | CCn1nc(C)cc1-c1cc(Cn2ccnc2)cc2c1CCN(c1nc(C)nc3cc(OC)c(OC)cc13)C2=O [Example 58, 7-((1H-Imidazol-1-yl)methyl)-2-(6,7-dimethoxy-2-methylquinazolin-4-yl)-5-(1-ethyl-3-methyl-1H-pyrazol-5-yl)-3,4-dihydroisoquinolin-1(2H)-one] | 0.03 nM | 195 nM
4 | COc1cc2nc(C)nc(N3CCc4c(cc(Cn5ccnc5)cc4-c4cc(C)nn4C)C3=O)c2cc1OC [Example 59, 7-((1H-Imidazol-1-yl)methyl)-2-(6,7-dimethoxy-2-methylquinazolin-4-yl)-5-(1,3-dimethyl-1H-pyrazol-5-yl)-3,4-dihydroisoquinolin-1(2H)-one] | < 0.02 nM | 90 nM
5 | COc1cc2nc(C)nc(N3CCc4c(cc(Cn5ccnc5)cc4-c4cc(C(F)(F)F)nn4C)C3=O)c2cc1OC [Example 61, 7-((1H-Imidazol-1-yl)methyl)-2-(6,7-dimethoxy-2-methylquinazolin-4-yl)-5-(1-methyl-3-(trifluoromethyl)-1H-pyrazol-5-yl)-3,4-dihydroisoquinolin-1(2H)-one] | 0.031 nM | 128 nM
6 | CCN(C)c1nc(N2CCc3c(cc(Cn4ccnc4)cc3-c3cn(C)nc3C(F)(F)F)C2=O)c2cc(OC)c(OC)cc2n1 [Example 62, 7-((1H-Imidazol-1-yl)methyl)-2-(2-(ethyl(methyl)amino)-6,7-dimethoxyquinazolin-4-yl)-5-(1-methyl-3-(trifluoromethyl)-1H-pyrazol-4-yl)-3,4-dihydroisoquinolin-1(2H)-one] | < 0.02 nM | 29 nM
7 | CCc1nc(N2CCc3c(cc(Cn4ccnc4)cc3-c3cn(C)nc3C(F)(F)F)C2=O)c2cc(OC)c(OC)cc2n1 [Example 63, 7-((1H-Imidazol-1-yl)methyl)-2-(2-ethyl-6,7-dimethoxyquinazolin-4-yl)-5-(1-methyl-3-(trifluoromethyl)-1H-pyrazol-4-yl)-3,4-dihydroisoquinolin-1(2H)-one] | < 0.02 nM | < 20 nM
8 | COc1cc2nc(C3CC3)nc(N3CCc4c(cc(Cn5ccnc5)cc4-c4cn(C)nc4C(F)(F)F)C3=O)c2cc1OC [Example 64, 7-((1H-Imidazol-1-yl)methyl)-2-(2-cyclopropyl-6,7-dimethoxyquinazolin-4-yl)-5-(1-methyl-3-(trifluoromethyl)-1H-pyrazol-4-yl)-3,4-dihydroisoquinolin-1(2H)-one] | < 0.02 nM | < 20 nM
9 | COc1cc2nc(C)nc(N3CCc4c(cc(Cn5ccnc5)cc4-c4cn(C)nc4C)C3=O)c2cc1OC [Example 65, 7-((1H-Imidazol-1-yl)methyl)-2-(6,7-dimethoxy-2-methylquinazolin-4-yl)-5-(1,3-dimethyl-1H-pyrazol-4-yl)-3,4-dihydroisoquinolin-1(2H)-one] | 0.023 nM | 43 nM
10 | COc1cc2nc(C)nc(N3CCc4c(cc(Cn5ccnc5)cc4-c4ccc(F)cc4C)C3=O)c2cc1OC [Example 66, 7-((1H-Imidazol-1-yl)methyl)-2-(6,7-dimethoxy-2-methylquinazolin-4-yl)-5-(4-fluoro-2-methylphenyl)-3,4-dihydroisoquinolin-1(2H)-one] | 0.02 nM | 38 nM
11 | COc1cc2nc(C3CCOCC3)nc(N3CCc4c(cc(Cn5ccnc5)cc4-c4cn(C)nc4C(F)(F)F)C3=O)c2cc1OC [Example 67, 7-((1H-Imidazol-1-yl)methyl)-2-(6,7-dimethoxy-2-(tetrahydro-2H-pyran-4-yl)quinazolin-4-yl)-5-(1-methyl-3-(trifluoromethyl)-1H-pyrazol-4-yl)-3,4-dihydroisoquinolin-1(2H)-one] | 0.025 nM | < 20 nM
